{"source": "the kinase profiling compilation of Christmann-Franck et al. (2016)", "assay_in_all_cases": "radiometric filter-binding kinase assay", "key": {"MAPK10 (human)": {"molecular_target": "MAPK10 (human) (UniProt P53779)"}, "PRKACA (human)": {"molecular_target": "PRKACA (human) (UniProt P17612)"}, "IKBKB (human)": {"molecular_target": "IKBKB (human) (UniProt O14920)", "sequence (O14920 whole entry, looked up)": "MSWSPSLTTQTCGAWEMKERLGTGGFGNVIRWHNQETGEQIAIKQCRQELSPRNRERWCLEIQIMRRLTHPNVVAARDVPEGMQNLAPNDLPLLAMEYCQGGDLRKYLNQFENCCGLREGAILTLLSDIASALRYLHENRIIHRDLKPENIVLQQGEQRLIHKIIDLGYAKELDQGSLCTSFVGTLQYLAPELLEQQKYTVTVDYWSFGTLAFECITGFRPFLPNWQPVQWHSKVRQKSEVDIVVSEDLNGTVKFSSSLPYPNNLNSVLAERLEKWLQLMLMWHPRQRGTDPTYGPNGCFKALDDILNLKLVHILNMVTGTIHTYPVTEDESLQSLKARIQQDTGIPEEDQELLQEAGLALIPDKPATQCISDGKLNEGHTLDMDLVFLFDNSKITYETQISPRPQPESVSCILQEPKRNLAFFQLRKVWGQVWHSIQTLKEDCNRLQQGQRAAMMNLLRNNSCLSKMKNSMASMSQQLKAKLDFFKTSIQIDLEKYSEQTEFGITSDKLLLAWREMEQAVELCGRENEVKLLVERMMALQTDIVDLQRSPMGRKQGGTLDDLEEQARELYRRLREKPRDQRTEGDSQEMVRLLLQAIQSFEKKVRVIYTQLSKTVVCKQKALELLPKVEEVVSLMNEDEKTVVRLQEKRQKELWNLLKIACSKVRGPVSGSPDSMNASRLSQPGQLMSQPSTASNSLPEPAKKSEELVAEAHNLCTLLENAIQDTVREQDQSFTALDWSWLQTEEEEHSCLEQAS"}, "MAP3K1 (human)": {"molecular_target": "MAP3K1 (human) (UniProt Q13233)"}, "MKNK1 (human)": {"molecular_target": "MKNK1 (human) (UniProt Q9BUB5)"}, "SRPK1 (human)": {"molecular_target": "SRPK1 (human) (UniProt Q96SB4)"}, "STK33 (human)": {"molecular_target": "STK33 (human) (UniProt Q9BYT3)", "sequence (Q9BYT3 whole entry, looked up)": "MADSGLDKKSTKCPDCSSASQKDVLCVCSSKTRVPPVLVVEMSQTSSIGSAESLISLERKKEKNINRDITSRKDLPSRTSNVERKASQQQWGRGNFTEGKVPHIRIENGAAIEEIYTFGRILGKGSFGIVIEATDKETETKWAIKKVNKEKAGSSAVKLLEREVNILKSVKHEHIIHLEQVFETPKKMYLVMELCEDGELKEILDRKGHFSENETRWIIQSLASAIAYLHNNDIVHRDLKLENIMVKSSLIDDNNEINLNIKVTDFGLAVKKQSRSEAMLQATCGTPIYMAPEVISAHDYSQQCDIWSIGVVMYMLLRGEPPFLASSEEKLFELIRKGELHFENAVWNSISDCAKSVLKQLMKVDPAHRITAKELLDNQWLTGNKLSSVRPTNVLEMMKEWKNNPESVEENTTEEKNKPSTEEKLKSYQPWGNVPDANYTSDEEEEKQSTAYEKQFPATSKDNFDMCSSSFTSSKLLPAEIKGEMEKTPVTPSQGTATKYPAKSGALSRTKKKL"}, "MARK3 (human)": {"molecular_target": "MARK3 (human) (UniProt P27448)", "sequence (P27448 whole entry, looked up)": "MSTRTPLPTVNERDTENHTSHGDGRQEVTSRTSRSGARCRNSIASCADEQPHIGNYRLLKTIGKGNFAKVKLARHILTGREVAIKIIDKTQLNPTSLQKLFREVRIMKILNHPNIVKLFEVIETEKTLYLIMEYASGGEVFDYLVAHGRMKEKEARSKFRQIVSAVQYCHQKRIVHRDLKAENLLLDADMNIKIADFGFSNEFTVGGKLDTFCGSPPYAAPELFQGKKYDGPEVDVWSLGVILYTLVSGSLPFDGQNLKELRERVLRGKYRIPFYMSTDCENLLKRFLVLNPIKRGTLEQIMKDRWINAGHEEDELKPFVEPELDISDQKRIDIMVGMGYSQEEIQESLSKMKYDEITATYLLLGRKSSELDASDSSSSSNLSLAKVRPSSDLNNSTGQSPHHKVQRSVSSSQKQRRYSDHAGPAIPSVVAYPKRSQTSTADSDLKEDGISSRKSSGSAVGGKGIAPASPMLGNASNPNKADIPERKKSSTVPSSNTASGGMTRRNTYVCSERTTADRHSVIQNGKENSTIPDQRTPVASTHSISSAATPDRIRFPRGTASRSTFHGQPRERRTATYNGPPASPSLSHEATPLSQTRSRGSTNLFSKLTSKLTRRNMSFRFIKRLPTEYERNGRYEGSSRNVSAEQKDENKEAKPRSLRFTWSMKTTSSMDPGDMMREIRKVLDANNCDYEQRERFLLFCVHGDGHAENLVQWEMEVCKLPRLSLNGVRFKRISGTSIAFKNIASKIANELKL"}, "MYLK (human)": {"molecular_target": "MYLK (human) (UniProt Q15746)"}, "MAP3K11 (human)": {"molecular_target": "MAP3K11 (human) (UniProt Q16584)"}, "EIF2AK3 (human)": {"molecular_target": "EIF2AK3 (human) (UniProt Q9NZJ5)", "sequence (Q9NZJ5 whole entry, looked up)": "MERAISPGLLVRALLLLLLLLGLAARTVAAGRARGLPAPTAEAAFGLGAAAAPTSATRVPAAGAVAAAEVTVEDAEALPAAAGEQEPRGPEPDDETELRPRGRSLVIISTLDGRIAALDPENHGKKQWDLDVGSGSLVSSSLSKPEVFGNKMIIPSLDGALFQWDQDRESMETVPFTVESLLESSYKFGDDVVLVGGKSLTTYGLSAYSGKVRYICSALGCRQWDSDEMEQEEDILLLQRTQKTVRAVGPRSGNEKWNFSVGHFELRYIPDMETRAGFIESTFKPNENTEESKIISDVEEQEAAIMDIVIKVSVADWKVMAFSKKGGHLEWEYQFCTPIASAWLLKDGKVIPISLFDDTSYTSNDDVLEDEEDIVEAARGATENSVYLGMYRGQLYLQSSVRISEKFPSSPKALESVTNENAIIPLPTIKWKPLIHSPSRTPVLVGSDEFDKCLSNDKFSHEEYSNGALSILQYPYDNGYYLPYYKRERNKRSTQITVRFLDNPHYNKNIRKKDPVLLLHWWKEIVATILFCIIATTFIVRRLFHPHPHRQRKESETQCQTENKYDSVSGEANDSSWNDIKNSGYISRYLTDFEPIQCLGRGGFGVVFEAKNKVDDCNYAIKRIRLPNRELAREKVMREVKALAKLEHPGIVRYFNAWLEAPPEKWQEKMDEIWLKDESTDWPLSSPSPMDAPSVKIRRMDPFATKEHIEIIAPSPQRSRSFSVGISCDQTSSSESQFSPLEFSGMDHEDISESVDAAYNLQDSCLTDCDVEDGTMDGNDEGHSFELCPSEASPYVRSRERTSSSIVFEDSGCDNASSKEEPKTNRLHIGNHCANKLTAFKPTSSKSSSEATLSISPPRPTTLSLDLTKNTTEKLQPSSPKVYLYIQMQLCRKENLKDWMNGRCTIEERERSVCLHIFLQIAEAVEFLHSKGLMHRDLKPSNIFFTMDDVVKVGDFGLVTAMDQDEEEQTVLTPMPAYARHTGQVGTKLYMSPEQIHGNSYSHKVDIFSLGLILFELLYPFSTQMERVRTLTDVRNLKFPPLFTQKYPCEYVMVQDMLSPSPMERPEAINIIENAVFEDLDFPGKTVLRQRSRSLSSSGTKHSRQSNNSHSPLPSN"}, "CHEK1 (human)": {"molecular_target": "CHEK1 (human) (UniProt O14757)"}, "RPS6KA3 KD1 KD2 (human)": {"molecular_target": "RPS6KA3 KD1 KD2 (human) (UniProt P51812)"}, "EPHB4 (human)": {"molecular_target": "EPHB4 (human) (UniProt P54760)"}, "NEK6 (human)": {"molecular_target": "NEK6 (human) (UniProt Q9HC98)", "sequence (Q9HC98 whole entry, looked up)": "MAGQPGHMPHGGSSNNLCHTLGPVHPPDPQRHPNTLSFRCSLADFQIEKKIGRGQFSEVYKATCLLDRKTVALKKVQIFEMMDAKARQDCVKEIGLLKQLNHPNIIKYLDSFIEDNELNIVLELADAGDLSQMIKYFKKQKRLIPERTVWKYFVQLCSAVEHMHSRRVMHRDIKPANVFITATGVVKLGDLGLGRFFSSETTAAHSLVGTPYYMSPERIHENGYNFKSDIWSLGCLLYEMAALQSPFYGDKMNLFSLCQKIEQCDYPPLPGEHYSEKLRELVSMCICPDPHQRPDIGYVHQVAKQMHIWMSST"}, "HIPK3 (human)": {"molecular_target": "HIPK3 (human) (UniProt Q9H422)", "sequence (Q9H422 whole entry, looked up)": "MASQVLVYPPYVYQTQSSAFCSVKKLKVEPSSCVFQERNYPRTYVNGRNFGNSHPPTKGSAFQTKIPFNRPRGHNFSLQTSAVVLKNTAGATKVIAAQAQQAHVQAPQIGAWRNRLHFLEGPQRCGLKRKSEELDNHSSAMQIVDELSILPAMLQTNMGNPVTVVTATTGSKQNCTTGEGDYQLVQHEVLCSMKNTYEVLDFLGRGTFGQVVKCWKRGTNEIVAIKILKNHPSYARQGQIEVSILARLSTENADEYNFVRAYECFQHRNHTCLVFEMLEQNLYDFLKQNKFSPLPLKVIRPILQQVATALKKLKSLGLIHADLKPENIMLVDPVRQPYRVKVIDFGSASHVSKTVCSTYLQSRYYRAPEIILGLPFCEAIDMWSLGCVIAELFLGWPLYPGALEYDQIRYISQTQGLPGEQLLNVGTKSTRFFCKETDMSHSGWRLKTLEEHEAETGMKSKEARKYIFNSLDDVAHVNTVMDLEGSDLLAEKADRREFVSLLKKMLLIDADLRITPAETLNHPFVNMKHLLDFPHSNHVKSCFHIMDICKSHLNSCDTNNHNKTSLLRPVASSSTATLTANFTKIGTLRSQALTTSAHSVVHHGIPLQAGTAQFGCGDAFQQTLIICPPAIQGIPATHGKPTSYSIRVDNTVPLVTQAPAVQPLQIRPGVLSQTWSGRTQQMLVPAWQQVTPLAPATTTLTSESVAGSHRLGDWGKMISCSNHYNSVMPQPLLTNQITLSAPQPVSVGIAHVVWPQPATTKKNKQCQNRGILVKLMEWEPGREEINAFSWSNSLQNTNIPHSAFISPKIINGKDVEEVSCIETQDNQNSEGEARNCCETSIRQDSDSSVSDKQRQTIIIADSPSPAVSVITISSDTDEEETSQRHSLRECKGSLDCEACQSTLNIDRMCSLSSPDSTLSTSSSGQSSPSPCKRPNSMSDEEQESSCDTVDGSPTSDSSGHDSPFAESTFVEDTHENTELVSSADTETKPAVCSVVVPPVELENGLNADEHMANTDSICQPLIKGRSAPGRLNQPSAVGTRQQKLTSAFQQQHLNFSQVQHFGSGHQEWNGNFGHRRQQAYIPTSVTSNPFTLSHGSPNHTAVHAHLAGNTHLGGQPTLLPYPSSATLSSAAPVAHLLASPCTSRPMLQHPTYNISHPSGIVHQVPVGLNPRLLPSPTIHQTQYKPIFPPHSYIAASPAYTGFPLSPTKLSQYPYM"}, "PAK6 (human)": {"molecular_target": "PAK6 (human) (UniProt Q9NQU5)"}, "MELK (human)": {"molecular_target": "MELK (human) (UniProt Q14680)"}, "MAPK15 (human)": {"molecular_target": "MAPK15 (human) (UniProt Q8TD08)"}, "CDK2 CCNA2 (human)": {"molecular_target": "CDK2 CCNA2 (human) (UniProt P20248+P24941)"}, "BRSK1 (human)": {"molecular_target": "BRSK1 (human) (UniProt Q8TDC3)"}, "FGFR1 (human)": {"molecular_target": "FGFR1 (human) (UniProt P11362)"}, "GSK3B (human)": {"molecular_target": "GSK3B (human) (UniProt P49841)"}, "CHEK2 (human)": {"molecular_target": "CHEK2 (human) (UniProt O96017)"}, "[1]": {"test_system": "OXSR1 (human), O95747 [T185E]"}, "MAP2K6 (human)": {"molecular_target": "MAP2K6 (human) (UniProt P52564)", "sequence (P52564 whole entry, looked up)": "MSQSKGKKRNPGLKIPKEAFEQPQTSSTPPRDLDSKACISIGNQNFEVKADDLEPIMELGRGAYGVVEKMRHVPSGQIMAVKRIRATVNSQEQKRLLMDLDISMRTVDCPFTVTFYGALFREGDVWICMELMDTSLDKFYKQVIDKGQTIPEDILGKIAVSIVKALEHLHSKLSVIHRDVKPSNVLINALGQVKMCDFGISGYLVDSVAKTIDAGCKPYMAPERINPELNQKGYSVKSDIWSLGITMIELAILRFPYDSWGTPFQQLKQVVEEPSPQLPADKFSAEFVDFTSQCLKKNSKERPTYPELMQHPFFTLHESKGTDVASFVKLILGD"}, "[2]": {"test_system": "PAK2 (human), Q13177 [T402E]"}, "NUAK1 (human)": {"molecular_target": "NUAK1 (human) (UniProt O60285)"}}, "data": [{"smiles": "CCN1CCN(Cc2ccc(NC(=O)c3ccc(C)c(Oc4ccnc5[nH]ccc45)c3)cc2C(F)(F)F)CC1", "values": [{"measurement": "residual activity", "setting": "MAPK10 (human); compound 0.1 µM", "result": 116, "unit": "%"}, {"measurement": "residual activity", "setting": "MAPK10 (human); compound 1.0 µM", "result": 91.8, "unit": "%"}, {"measurement": "residual activity", "setting": "MAPK10 (human); compound 10.0 µM", "result": 31.8, "unit": "%"}, {"measurement": "residual activity", "setting": "PRKACA (human); compound 0.1 µM", "result": 100, "unit": "%"}, {"measurement": "residual activity", "setting": "PRKACA (human); compound 1.0 µM", "result": 93.4, "unit": "%"}, {"measurement": "residual activity", "setting": "PRKACA (human); compound 10.0 µM", "result": 76.2, "unit": "%"}, {"measurement": "residual activity", "setting": "IKBKB (human); compound 0.1 µM", "result": 114, "unit": "%"}, {"measurement": "residual activity", "setting": "IKBKB (human); compound 1.0 µM", "result": 101, "unit": "%"}, {"measurement": "residual activity", "setting": "IKBKB (human); compound 10.0 µM", "result": 44.6, "unit": "%"}, {"measurement": "residual activity", "setting": "MAP3K1 (human); compound 0.1 µM", "result": 127, "unit": "%"}, {"measurement": "residual activity", "setting": "MAP3K1 (human); compound 1.0 µM", "result": 111, "unit": "%"}, {"measurement": "residual activity", "setting": "MAP3K1 (human); compound 10.0 µM", "result": 108, "unit": "%"}, {"measurement": "residual activity", "setting": "MKNK1 (human); compound 0.1 µM", "result": 98, "unit": "%"}, {"measurement": "residual activity", "setting": "MKNK1 (human); compound 1.0 µM", "result": 104, "unit": "%"}, {"measurement": "residual activity", "setting": "MKNK1 (human); compound 10.0 µM", "result": 82.7, "unit": "%"}, {"measurement": "residual activity", "setting": "SRPK1 (human); compound 0.1 µM", "result": 102, "unit": "%"}, {"measurement": "residual activity", "setting": "SRPK1 (human); compound 1.0 µM", "result": 97.1, "unit": "%"}, {"measurement": "residual activity", "setting": "SRPK1 (human); compound 10.0 µM", "result": 73, "unit": "%"}, {"measurement": "residual activity", "setting": "STK33 (human); compound 0.1 µM", "result": 106, "unit": "%"}, {"measurement": "residual activity", "setting": "STK33 (human); compound 1.0 µM", "result": 96.7, "unit": "%"}, {"measurement": "residual activity", "setting": "STK33 (human); compound 10.0 µM", "result": 79.6, "unit": "%"}, {"measurement": "residual activity", "setting": "MARK3 (human); compound 0.1 µM", "result": 112, "unit": "%"}, {"measurement": "residual activity", "setting": "MARK3 (human); compound 1.0 µM", "result": 99.5, "unit": "%"}, {"measurement": "residual activity", "setting": "MARK3 (human); compound 10.0 µM", "result": 105, "unit": "%"}, {"measurement": "residual activity", "setting": "MYLK (human); compound 0.1 µM", "result": 109, "unit": "%"}, {"measurement": "residual activity", "setting": "MYLK (human); compound 1.0 µM", "result": 89.4, "unit": "%"}, {"measurement": "residual activity", "setting": "MYLK (human); compound 10.0 µM", "result": 76.7, "unit": "%"}, {"measurement": "residual activity", "setting": "MAP3K11 (human); compound 0.1 µM", "result": 95.1, "unit": "%"}, {"measurement": "residual activity", "setting": "MAP3K11 (human); compound 1.0 µM", "result": 50.3, "unit": "%"}, {"measurement": "residual activity", "setting": "MAP3K11 (human); compound 10.0 µM", "result": 8.66, "unit": "%"}, {"measurement": "residual activity", "setting": "EIF2AK3 (human); compound 0.1 µM", "result": 98.8, "unit": "%"}, {"measurement": "residual activity", "setting": "EIF2AK3 (human); compound 1.0 µM", "result": 64.6, "unit": "%"}, {"measurement": "residual activity", "setting": "EIF2AK3 (human); compound 10.0 µM", "result": 21.4, "unit": "%"}, {"measurement": "residual activity", "setting": "CHEK1 (human); compound 0.1 µM", "result": 114, "unit": "%"}, {"measurement": "residual activity", "setting": "CHEK1 (human); compound 1.0 µM", "result": 105, "unit": "%"}, {"measurement": "residual activity", "setting": "CHEK1 (human); compound 10.0 µM", "result": 110, "unit": "%"}, {"measurement": "residual activity", "setting": "RPS6KA3 KD1 KD2 (human); compound 0.1 µM", "result": 94.8, "unit": "%"}, {"measurement": "residual activity", "setting": "RPS6KA3 KD1 KD2 (human); compound 1.0 µM", "result": 93.8, "unit": "%"}, {"measurement": "residual activity", "setting": "RPS6KA3 KD1 KD2 (human); compound 10.0 µM", "result": 76.3, "unit": "%"}, {"measurement": "residual activity", "setting": "EPHB4 (human); compound 0.1 µM", "result": 97.3, "unit": "%"}, {"measurement": "residual activity", "setting": "EPHB4 (human); compound 1.0 µM", "result": 92.6, "unit": "%"}, {"measurement": "residual activity", "setting": "EPHB4 (human); compound 10.0 µM", "result": 42.7, "unit": "%"}, {"measurement": "residual activity", "setting": "NEK6 (human); compound 0.1 µM", "result": 104, "unit": "%"}, {"measurement": "residual activity", "setting": "NEK6 (human); compound 1.0 µM", "result": 84.6, "unit": "%"}, {"measurement": "residual activity", "setting": "NEK6 (human); compound 10.0 µM", "result": 73.5, "unit": "%"}, {"measurement": "residual activity", "setting": "HIPK3 (human); compound 0.1 µM", "result": 110, "unit": "%"}, {"measurement": "residual activity", "setting": "HIPK3 (human); compound 1.0 µM", "result": 70.3, "unit": "%"}, {"measurement": "residual activity", "setting": "HIPK3 (human); compound 10.0 µM", "result": 19.8, "unit": "%"}, {"measurement": "residual activity", "setting": "PAK6 (human); compound 0.1 µM", "result": 104, "unit": "%"}, {"measurement": "residual activity", "setting": "PAK6 (human); compound 1.0 µM", "result": 90.4, "unit": "%"}, {"measurement": "residual activity", "setting": "PAK6 (human); compound 10.0 µM", "result": 94, "unit": "%"}, {"measurement": "residual activity", "setting": "MELK (human); compound 0.1 µM", "result": 115, "unit": "%"}, {"measurement": "residual activity", "setting": "MELK (human); compound 1.0 µM", "result": 99.5, "unit": "%"}, {"measurement": "residual activity", "setting": "MELK (human); compound 10.0 µM", "result": 64.1, "unit": "%"}, {"measurement": "residual activity", "setting": "MAPK15 (human); compound 0.1 µM", "result": 106, "unit": "%"}, {"measurement": "residual activity", "setting": "MAPK15 (human); compound 10.0 µM", "result": 44.6, "unit": "%"}, {"measurement": "residual activity", "setting": "CDK2 CCNA2 (human); compound 0.1 µM", "result": 110, "unit": "%"}, {"measurement": "residual activity", "setting": "CDK2 CCNA2 (human); compound 1.0 µM", "result": 112, "unit": "%"}, {"measurement": "residual activity", "setting": "CDK2 CCNA2 (human); compound 10.0 µM", "result": 99.9, "unit": "%"}, {"measurement": "residual activity", "setting": "BRSK1 (human); compound 0.1 µM", "result": 101, "unit": "%"}, {"measurement": "residual activity", "setting": "BRSK1 (human); compound 1.0 µM", "result": 96.2, "unit": "%"}, {"measurement": "residual activity", "setting": "BRSK1 (human); compound 10.0 µM", "result": 109, "unit": "%"}, {"measurement": "residual activity", "setting": "FGFR1 (human); compound 0.1 µM", "result": 79.1, "unit": "%"}, {"measurement": "residual activity", "setting": "FGFR1 (human); compound 1.0 µM", "result": 23.5, "unit": "%"}, {"measurement": "residual activity", "setting": "FGFR1 (human); compound 10.0 µM", "result": 8.48, "unit": "%"}, {"measurement": "residual activity", "setting": "GSK3B (human); compound 0.1 µM", "result": 102, "unit": "%"}, {"measurement": "residual activity", "setting": "GSK3B (human); compound 1.0 µM", "result": 104, "unit": "%"}, {"measurement": "residual activity", "setting": "GSK3B (human); compound 10.0 µM", "result": 101, "unit": "%"}, {"measurement": "residual activity", "setting": "CHEK2 (human); compound 0.1 µM", "result": 117, "unit": "%"}, {"measurement": "residual activity", "setting": "CHEK2 (human); compound 1.0 µM", "result": 103, "unit": "%"}, {"measurement": "residual activity", "setting": "CHEK2 (human); compound 10.0 µM", "result": 67.9, "unit": "%"}, {"measurement": "residual activity", "setting": "[1]; compound 0.1 µM", "result": 54, "unit": "%"}, {"measurement": "residual activity", "setting": "[1]; compound 10.0 µM", "result": 1.79, "unit": "%"}, {"measurement": "residual activity", "setting": "MAP2K6 (human); compound 0.1 µM", "result": 118, "unit": "%"}, {"measurement": "residual activity", "setting": "MAP2K6 (human); compound 1.0 µM", "result": 158, "unit": "%"}, {"measurement": "residual activity", "setting": "MAP2K6 (human); compound 10.0 µM", "result": 133, "unit": "%"}, {"measurement": "residual activity", "setting": "[2]; compound 0.1 µM", "result": 116, "unit": "%"}, {"measurement": "residual activity", "setting": "[2]; compound 1.0 µM", "result": 100, "unit": "%"}, {"measurement": "residual activity", "setting": "[2]; compound 10.0 µM", "result": 68.6, "unit": "%"}, {"measurement": "residual activity", "setting": "NUAK1 (human); compound 0.1 µM", "result": 85.8, "unit": "%"}, {"measurement": "residual activity", "setting": "NUAK1 (human); compound 1.0 µM", "result": 90.5, "unit": "%"}, {"measurement": "residual activity", "setting": "NUAK1 (human); compound 10.0 µM", "result": 84.9, "unit": "%"}]}]}
